# Results as given in patent publication US20050118613A1, “Methods and kits for predicting the likelihood of successful treatment of cancer” (Oncomethylome Sciences S.A., priority 2003, published 2005).
# Key:
# [1] = tested on: stage II and III colorectal cancers; assay: Survival of stage II and III colorectal cancer patients treated by surgery alone or surgery plus standard 5FU chemotherapy, by hMLH1 methylation; format: in vivo, human
# From the text: The predictive value of hMLH1 methylation for survival benefit with 5FU chemotherapy was examined in a series of stage II and III colorectal cancers that had been treated by surgery alone (no chemotherapy) or by surgery plus standard 5FU chemotherapy.
# The following primers were used to detect methylated hMLH1 following bisulfite conversion (utilising the MSP technique): […]
# stage III CRC patients = assay: Survival of stage III CRC patients treated by surgery alone or by surgery and 5-FU/leucovorin (matched cohorts), by CIMP status; format: in vivo, human
# From the text: A total of 891 stage III CRC cases were diagnosed at the Sir Charles Gairdner Hospital between 1985 and 1999 (14). This spans the time period during which 5-FU-based adjuvant chemotherapy was being introduced in Western Australia for the management of stage III CRC. Adjuvant chemotherapy was given to 270 (30%) patients according to the standard Mayo regimen (5-FU/leucovorin). This comprised at least two cycles of chemotherapy, and for the majority of patients the full six cycles were completed. Patients were separated into categories based on 5-year age intervals, gender, and site of tumor origin. […] Within these groups, adjuvant-treated and nontreated patients were pair-matched at random. A total cohort of 125 matched pairs was selected for DNA methylation analysis. […] All cases were diagnosed at a single pathology laboratory (Hospital and University Pathology Service/Pathcenter) associated with the Sir Charles Gairdner Hospital. This laboratory maintained relatively constant reporting practices during the 1985-1999 study period. Five cases were classified as T4 lesions, and all others were classified as T3. The study included 48 rectal, 24 sigmoid, 24 descending colon, 17 transverse colon, 47 ascending colon, and 46 cecal tumors. Four patients with rectal cancer received post-operative radiotherapy. Disease-specific survival information was obtained on all 206 patients by examination of hospital and West Australian Health Department records. The median follow-up time was 39 months (range, 1-172 months), with 119 patients (58%) dying as a result of recurrent disease by the end of the study. Survival data for 19 (9%) patients who died from other causes were censored at the time of death. It has been estimated that net migration out of the state of Western Australia is 0.4% per year, equating to approximately 1 case/year of the 206 cases investi-gated in this series. However, this rate is expected to be considerably lower for older individuals and particularly for those diagnosed with cancer. The Sir Charles Gairdner Hospital Human Research Ethics Committee gave approval for this study.
# Methylation-specific PCR was used to determine the methylation status of CpG islands located within the p16 promoter (4, 5, 10, 17), the MINT-2 clone (3, 4), and the MDR1 promoter (4, 9). DNA amplification of all three CpG loci was successful for 103 matched pairs, equating to an overall success rate of approximately 90%. CIMP+ was arbitrarily defined as the presence of two or more of these sites showing methylation. Of the 206 tumors successfully analyzed in this study for CIMP+ status, the majority (83%) were sourced from formalin-fixed and paraffin-embedded archival tissue blocks. The remaining cases were in the form of unfixed tissue samples taken shortly after surgical resection and stored frozen at −80° C.
# Multivariate Cox proportional hazard test with matched-pair stratification and Kaplan-Meier analyses were used to evaluate differences in survival between patient groups. Regression sensitivity was determined by analyzing the effect of unmeasured binary confounders as described by Lin et al. (20) Statistical analyses were performed using the Stata 7.0 (College Station, Tex.) software package. All Ps are two-sided.
compound,measurement,setting,value
"O=c1[nH]cc(F)c(=O)[nH]1 [5-FU, 5-fluorouracil]",survival of patient group,"[1]; hMLH1 methylated, chemotherapy (10/10), P = 0.097 vs no chemotherapy",10/10 (100%) P = 0.097
same,survival of patient group,"[1]; hMLH1 non-methylated, chemotherapy (15/22), P = NS vs no chemotherapy",15/22 (68%) P = NS
same,impact of chemotherapy on overall survival,"[1]; patients with methylated hMLH1 gene, chemotherapy vs no chemotherapy (FIG. 3C)",positive impact
same,"RR (relative risk), predictive value of CIMP+ for survival benefit","stage III CRC patients; CIMP+, multivariate analysis for matched pairs, independent of MSI+ and p53 status, 95% CI 0.06-0.84, P=0.027",0.22
same,long-term survival benefit from 5-FU treatment,stage III CRC patients; CIMP- patients,no long-term survival benefit
same,"RR (relative risk), survival benefit from 5-FU","stage III CRC patients; CIMP- patients, 95% CI 0.62-1.49, P=0.86",0.96
same,"RR (relative risk), survival benefit associated with the use of 5-FU","stage III CRC patients; all stage III CRC patients, surgery + 5-FU vs surgery alone, 95% CI 0.43-0.90, P=0.012",0.62
same,survival of CIMP+ patients compared to CIMP-,stage III CRC patients; cohort treated with surgery plus 5-FU,trend for better survival
same,patients who died from recurrent CRC despite the use of 5-FU,stage III CRC patients; patients with CIMP+ tumors,approximately 40%
